# Measurements: PMC9673926, “Nucleotide binding as an allosteric regulatory mechanism for Akkermansia muciniphila β-N-acetylhexosaminidase Am2136” (Gut Microbes, 2022)
# Numbering of substitutions follows the chain as printed.
# Assays:
# Assay in all cases: Nucleotide binding affinity by intrinsic fluorescence, mutant
# Set-up in all cases: The coding region (residue Q20-L756) of Am2136 without signal peptide was based on UniProt; 6XHis (N); made in house; host or cells: E. coli BL21 (DE3)
# Am2136 P595A+H597A = molecular target: T1, Am2136 P595A+H597A (Akkermansia muciniphila, UniProt B2UPR7, H597A/P595A)
# T1 sequence (B2UPR7 20-756 P595A/H597A): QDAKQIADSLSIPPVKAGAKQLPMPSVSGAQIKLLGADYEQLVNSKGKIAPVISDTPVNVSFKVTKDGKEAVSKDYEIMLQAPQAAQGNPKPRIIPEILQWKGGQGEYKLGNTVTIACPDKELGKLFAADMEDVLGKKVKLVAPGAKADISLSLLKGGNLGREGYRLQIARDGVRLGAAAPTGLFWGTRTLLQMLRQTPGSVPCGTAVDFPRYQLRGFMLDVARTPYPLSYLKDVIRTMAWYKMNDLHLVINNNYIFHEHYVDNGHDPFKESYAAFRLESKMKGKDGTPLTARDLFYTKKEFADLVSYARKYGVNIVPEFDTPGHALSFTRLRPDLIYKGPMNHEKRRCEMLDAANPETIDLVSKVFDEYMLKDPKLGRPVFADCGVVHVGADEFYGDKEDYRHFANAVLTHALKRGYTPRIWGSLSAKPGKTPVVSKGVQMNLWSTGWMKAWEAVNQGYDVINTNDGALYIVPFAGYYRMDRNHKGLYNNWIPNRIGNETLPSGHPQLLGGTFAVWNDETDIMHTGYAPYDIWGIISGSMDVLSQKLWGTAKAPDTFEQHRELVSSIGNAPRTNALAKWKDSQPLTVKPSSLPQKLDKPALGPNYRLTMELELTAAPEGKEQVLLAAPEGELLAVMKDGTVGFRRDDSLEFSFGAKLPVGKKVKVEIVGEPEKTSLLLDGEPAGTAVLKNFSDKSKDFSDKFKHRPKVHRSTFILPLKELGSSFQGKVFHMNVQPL
# Description: (§1) The nucleotide binding ability was determined on Fluorescence Spectrometer Duetta (HORIBA) by measuring the change of peak intensity. The fluorescence was excited at 286 nm and emitted at 336 nm. And the measurement was processed under 400 V voltage with 2.5 nm excitation slit and 5 nm emission slit. The 120 μL reaction mixture contains 0–550 μM nucleotide, 5 μM proteins, 25 mM Tris pH 8.0 and 150 mM NaCl. The sample was incubated at 4°C for 5 min before testing.
# Am2136 Y327F+Y331F = molecular target: T2, Am2136 Y327F+Y331F (Akkermansia muciniphila, UniProt B2UPR7, Y327F/Y331F)
# T2 sequence (B2UPR7 20-756 Y327F/Y331F): T1 sequence (B2UPR7 20-756 P595A/H597A) with Y308F, Y312F, A576P, A578H
# Description: as §1
# Am2136 R256A = molecular target: T3, Am2136 R256A (Akkermansia muciniphila, UniProt B2UPR7, R256A)
# T3 sequence (B2UPR7 20-756 R256A): T1 sequence (B2UPR7 20-756 P595A/H597A) with R237A, A576P, A578H
# Description: as §1
smiles,measurement,setting,value
Nc1nc2c(ncn2[C@@H]2O[C@H](COP(=O)(O)OP(=O)(O)O)[C@@H](O)[C@H]2O)c(=O)[nH]1 [GDP],Kd,Am2136 P595A+H597A,140 ± 4.26 µM
same,Kd,Am2136 Y327F+Y331F,175 ± 13.7 µM
same,Kd,Am2136 R256A,158 ± 10.9 µM
